The record followed here is US8242274B2, “Triazolopyridine kinase inhibitors useful for the treatment of degenerative and inflammatory diseases” (Galapagos NV, priority 2008, dated 2012).

In series [1] the test system is pSTAT1(2)-luciferase reporter. The series can be described thus: JAK-STAT signalling assay (HeLa cells, OSM trigger). In kind it is cell-based. The settings on record: human OSM 33 ng/mL. On the procedure:
HeLa cells were maintained in Dulbecco's Modified Eagle's Medium (DMEM) containing 10% heat inactivated fetal calf serum, 100 U/mL penicillin and 100 μg/mL streptomycin. HeLa cells were used at 70% confluence for transfection. 20,000 cells in 87 μL cell culture medium were transiently transfected with 40 ng pSTAT1(2)-luciferase reporter (Panomics), 8 ng of LacZ reporter as internal control reporter and 52 ng of pBSK using 0.32 μL Jet-PEI (Polyplus) as transfection reagent per well in 96-well plate format. After overnight incubation at 37° C., 10% CO2, transfection medium was removed. 75 μL of DMEM+1.5% heat inactivated fetal calf serum was added. 15 μL of compound at 6.7× concentration was added for 60 min and then 10 μL of human OSM (Peprotech) at 33 ng/mL final concentration. […]
40 μL of cell lysate was used to read β-galactosidase activity by adding 180 μL βGal solution (30 μl ONPG 4 mg/mL+150 μL β-Galactosidase buffer (0.06 M Na2HPO4, 0.04 M NaH2PO4, 1 mM MgCl2)) for 20 min. The reaction was stopped by addition of 50 μL Na2CO3 1 M. Absorbance was read at 405 nm.
Luciferase activity was measured using 40 μL cell lysate plus 40 μl of Steadylite® as described by the manufacturer (Perkin Elmer), on the Envision (Perkin Elmer). […]

The target of series [2] is T1, Recombinant human JAK3 catalytic domain (Homo sapiens, UniProt P52333).
T1 construct: Recombinant human JAK3 catalytic domain (amino acids 781-1124; catalog number PV3855); purchased Invitrogen PV3855
The series can be described thus: JAK3 inhibition assay. The class given is biochemical. As to conditions: semi-quantitative score. On the procedure:
Recombinant human JAK3 catalytic domain (amino acids 781-1124; catalog number PV3855) was purchased from Invitrogen. 0.025 mU of JAK3 was incubated with 2.5 μg polyGT substrate (Sigma catalog number P0275) in kinase reaction buffer (25 mM Tris pH 7.5, 0.5 mM EGTA, 0.5 mM Na3VO4, 5 mM b-glycerolphosphate, 0.01% Triton X-100, 1 μM non-radioactive ATP, 0.25 μCi 33P-gamma-ATP (GE Healthcare, catalog number AH9968) final concentrations) with or without 5 μL containing test compound or vehicle (DMSO, 1% final concentration), in a total volume of 25 μL, in a polypropylene 96-well plate (Greiner, V-bottom). After 105 min at 30° C., reactions were stopped by adding of 25 μL/well of 150 mM phosphoric acid. All of the terminated kinase reaction was transferred to prewashed (75 mM phosphoric acid) 96 well filter plates (Perkin Elmer catalog number 6005177) using a cell harvester (Perkin Elmer). Plates were washed 6 times with 300 μL per well of a 75 mM phosphoric acid solution and the bottom of the plates was sealed. 40 μL/well of Microscint-20 was added, the top of the plates was sealed and readout was performed using the Topcount (Perkin Elmer). Kinase activity was calculated by subtracting counts per minute (cpm) obtained in the presence of a positive control inhibitor (10 μM staurosporine) from cpm obtained in the presence of vehicle. The ability of a test compound to inhibit this activity was determined as: Percentage inhibition=((cpm determined for sample with test compound present−cpm determined for sample with positive control inhibitor) divided by (cpm determined in the presence of vehicle−cpm determined for sample with positive control inhibitor))*100%.
Dose dilution series were prepared for the compounds enabling the testing of dose-response effects in the JAK3 assay and the calculation of the IC50 for each compound. Each compound was routinely tested at concentration of 20 μM followed by a 1/3 serial dilution, 8 points (20 μM-6.67 μM-2.22 μM-740 nM-247 nM-82 nM-27 nM-9 nM) in a final concentration of 1% DMSO.

A further series has as its target T2, hERG channels (Homo sapiens, UniProt Q12809).
T2 construct: expressed in transfected cells
Nature of the series: hERG patch clamp assay, liability for QT prolongation. The class given is cell-based. On the procedure:
Electrodes were manufactured from GC150TF pipette glass (Harvard), resistance was between 2 and 3 MΩ.
IC50 and IC20 values were calculated for each compound tested. The fold difference between the IC20 and the unbound Cmax concentrations of the test compound obtained at relevant therapeutic doses as determined by results obtained from the rat CIA model was calculated.
For the concentration response curves, peak tail current amplitude was measured during the voltage step to −50 mV.
Background: hERG is a cardiac potassium channel; its block is linked to QT prolongation.

In a further series the test system is TNF release. The series can be described thus: Septic shock model (LPS). In kind it is in vivo, mice. As to conditions: for reduction in the TNF release: statistically significant. The protocol:
Injection of lipopolysaccharide (LPS) induces a rapid release of soluble tumour necrosis factor (TNF-alpha) into the periphery. This model is used to analyse prospective blockers of TNF release in vivo.
Six BALB/cJ female mice (20 g) per group were treated at the intended dosing once, po. Thirty minutes later, LPS (15 μg/kg; E. Coli serotype 0111:B4) was injected ip. Ninety minutes later, mice were euthanized and blood was collected. Circulating TNF alpha levels were determined using commercially available ELISA kits. Dexamethasone (5 μg/kg) was used as a reference anti-inflammatory compound. Selected compounds are tested at one or multiple doses, e.g. 3 and/or 10 and/or 30 mg/kg, po.

The test system of a further series is MAB model. The series can be described thus: MAB model (collagen antibody-induced arthritis). As to conditions: for activity in the MAB model: 30 mg/kg. In kind it is in vivo, mice. On the procedure:
The MAB model allows a rapid assessment of the modulation of an RA-like inflammatory response by therapeutics ([…]. Nature Protocols (2006) 2512-2516: Collagen antibody-induced arthritis). DBA/J mice were injected i.v. with a cocktail of mAbs directed against collagen II. One day later, compound treatment was initiated (vehicle: 10% (v/v) HPβCD). Three days later, mice received an i.p. LPS injection (50 μg/mouse), resulting in a fast onset of inflammation. Compound treatment was continued until 10 days after the mAb injection. Inflammation was read by measuring paw swelling and recording the clinical score of each paw. The cumulative clinical arthritis score of four limbs was presented to show the severity of inflammation. A scoring system is applied to each limb using a scale of 0-4, with 4 being the most severe inflammation. • 0 Symptom free • 1 Mild, but definite redness and swelling of one type of joint such as the ankle or wrist, or apparent redness and swelling limited to individual digits, regardless of the number of affected digits • 2 Moderate redness and swelling of two or more types of joints • 3 Severe redness and swelling of the entire paw including digits • 4 Maximally inflamed limb with involvement of multiple joints

pEC50, pIC50: −log10 of the molar value.

T1 sequence (P52333 781-1124): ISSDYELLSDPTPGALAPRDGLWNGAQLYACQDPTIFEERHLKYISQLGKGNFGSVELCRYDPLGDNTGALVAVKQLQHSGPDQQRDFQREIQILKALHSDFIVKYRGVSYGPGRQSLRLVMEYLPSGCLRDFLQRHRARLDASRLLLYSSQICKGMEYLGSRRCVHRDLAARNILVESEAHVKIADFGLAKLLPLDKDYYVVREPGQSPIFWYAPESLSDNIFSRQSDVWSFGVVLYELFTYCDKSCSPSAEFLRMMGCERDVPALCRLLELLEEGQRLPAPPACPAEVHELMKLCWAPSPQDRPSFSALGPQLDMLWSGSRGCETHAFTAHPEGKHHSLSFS
T2 sequence (Q12809 whole entry): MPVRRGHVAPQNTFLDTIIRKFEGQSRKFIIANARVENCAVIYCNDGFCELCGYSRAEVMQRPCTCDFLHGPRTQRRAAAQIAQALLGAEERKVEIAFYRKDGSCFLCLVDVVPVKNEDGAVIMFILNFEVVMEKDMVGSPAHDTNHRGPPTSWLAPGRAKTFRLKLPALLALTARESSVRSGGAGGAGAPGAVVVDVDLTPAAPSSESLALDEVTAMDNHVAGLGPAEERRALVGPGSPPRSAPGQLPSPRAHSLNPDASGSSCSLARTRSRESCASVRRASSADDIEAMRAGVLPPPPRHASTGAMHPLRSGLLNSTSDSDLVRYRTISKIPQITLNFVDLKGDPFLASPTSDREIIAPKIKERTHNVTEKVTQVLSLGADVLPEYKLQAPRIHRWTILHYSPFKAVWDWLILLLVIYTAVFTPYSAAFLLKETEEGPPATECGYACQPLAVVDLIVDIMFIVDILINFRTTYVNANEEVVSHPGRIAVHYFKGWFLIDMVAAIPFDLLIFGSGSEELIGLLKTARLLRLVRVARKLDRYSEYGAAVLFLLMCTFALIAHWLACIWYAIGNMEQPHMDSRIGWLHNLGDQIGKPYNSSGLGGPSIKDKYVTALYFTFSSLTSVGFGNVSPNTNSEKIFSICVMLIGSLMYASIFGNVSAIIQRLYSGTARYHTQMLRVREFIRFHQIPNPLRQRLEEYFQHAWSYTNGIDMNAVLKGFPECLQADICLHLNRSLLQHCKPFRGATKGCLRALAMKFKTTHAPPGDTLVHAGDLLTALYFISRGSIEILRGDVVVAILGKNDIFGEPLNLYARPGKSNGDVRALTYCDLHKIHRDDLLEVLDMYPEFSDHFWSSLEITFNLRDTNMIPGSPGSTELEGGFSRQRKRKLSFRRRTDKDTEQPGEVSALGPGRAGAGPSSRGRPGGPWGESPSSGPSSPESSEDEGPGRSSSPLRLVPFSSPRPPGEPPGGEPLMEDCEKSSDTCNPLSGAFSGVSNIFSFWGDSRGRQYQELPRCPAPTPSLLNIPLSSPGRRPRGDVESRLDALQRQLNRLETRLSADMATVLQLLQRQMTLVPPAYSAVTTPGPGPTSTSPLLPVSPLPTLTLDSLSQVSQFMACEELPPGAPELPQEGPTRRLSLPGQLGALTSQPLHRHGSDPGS

A word on the pEC50: it is −log10 of the EC50, conventionally taken in molar units. A high value points to a small EC50. Compound `CC(=O)Nc1ccc(COc2ccc(-c3cccc4nc(NC(=O)C5CC5)nn34)cc2)cc1` [Compound 92, N-(5-(4-(4-acetamidobenzyloxy)phenyl)-[1,2,4]triazolo[1,5-a]pyridin-2-yl)cyclopropanecarboxamide] showed a pEC50 in series [1] below 6.00.

One may read the pIC50 as the negative decadic logarithm of the IC50, by convention in mol/L. With `N#Cc1ccc(COc2ccc(-c3cccc4nc(NC(=O)C5CC5)nn34)cc2)cn1` [Compound 176, N-(5-(4-((6-cyanopyridin-3-yl)methoxy)phenyl)-[1,2,4]triazolo[1,5-a]pyridin-2-yl)cyclopropanecarboxamide], the pIC50 in series [2] is 7.00 to 9.00. For the same compound, the pEC50 in series [1] is 7.00 to 9.00. In addition, the “Fold difference between the hERG IC20 and the unbound Cmax” value on hERG channels (Dose 3 (rat CIA model)) is 137; at hERG channels (Dose 10 (rat CIA model)) it was 82. Also, the “potential for QT prolongation” value at hERG channels (compared to Compound 37) is “much lower potential QT prolongation issue”. In addition, the “reduction in the TNF release” value with TNF release (3 mg/kg po) and in the series with TNF release (10 mg/kg po) was above 50% in each case. In addition, the figures for the “clinical score, MAB model” value in the series with MAB model (10 mg/kg p.o.) and in the series with MAB model (30 mg/kg p.o.) were “reduced the clinical score” and “reduced the clinical score with statistical significance”, respectively. Besides, the “inflammation, MAB model” value with MAB model (10 mg/kg p.o.) and in the series with MAB model (30 mg/kg p.o.) was “significantly reduced inflammation” each time.

In the case of `O=C(Nc1nc2cccc(-c3ccc(NCc4ccccc4)cc3)n2n1)C1CC1` [Compound 72, N-(5-(4-(benzylamino)phenyl)-[1,2,4]triazolo[1,5-a]pyridin-2-yl)cyclopropanecarboxamide], in series [2], the pIC50 is below 6.30.

Regarding `O=C(Nc1nc2cccc(-c3ccc(OCc4cccnc4)cc3)n2n1)C1CC1` [Compound 36, N-(5-(4-(pyridin-3-ylmethoxy)phenyl)-[1,2,4]triazolo[1,5-a]pyridin-2-yl)cyclopropanecarboxamide], in series [2], the pIC50 was 6.30 to 7.00. Also, the “activity in the septic shock model” value in the series on TNF release (30 mg/kg) is on record as “active”. Further, in the series with MAB model, the “activity in the MAB model” value is “active”.

As for `O=C(Nc1nc2cccc(-c3ccc(OCc4ccccc4)nc3)n2n1)C1CC1` [Compound 57, Cyclopropanecarboxylic acid [5-(6-benzyloxy-pyridin-3-yl)-[1,2,4]triazolo[1,5-a]pyridin-2-yl]-amide], the pIC50 in series [2] is below 6.30.

As to `O=C(Nc1nc2cccc(-c3ccc(OCc4ccccc4)cc3)n2n1)C1CC1` [Compound 12, N-(5-(4-(benzyloxy)phenyl)-[1,2,4]triazolo[1,5-a]pyridin-2-yl)cyclopropanecarboxamide], the pIC50 in series [2] is 7.00 to 9.00.

Take `O=C(Nc1nc2cccc(-c3ccc(OCc4ccccn4)cc3)n2n1)C1CC1` [Compound 37, N-(5-(4-(pyridin-2-ylmethoxy)phenyl)-[1,2,4]triazolo[1,5-a]pyridin-2-yl)cyclopropanecarboxamide]: the “Fold difference between the hERG IC20 and the unbound Cmax” value at hERG channels (Dose 10 (rat CIA model)) stood at 7. For the same compound, in the series on TNF release (3 mg/kg), the “activity in the septic shock model” value is “active”. In addition, the “activity in the MAB model” value in the series with MAB model is recorded as “active”.
